The subject of test [1] is phosphorylated 4E-BP1 Thr37/46 (p4E-BP1 Thr37/46), mTORC1 activity, PC3 cells. The test can be described thus: mTOR target engagement assay, immunofluorescent cell-based, p4E-BP1 Thr37/46 readout (mTORC1 activity). As to conditions: read-out: p4E-BP1 Thr37/46 IC50. In outline: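 Cell-based immunofluorescence in PC3 cells: serially diluted compounds (0.25% DMSO, 5% FBS) applied for ninety minutes at 37° C before fixation and overnight 4° C staining of p4E-BP1 Thr37/46. Untreated DMSO wells set maximal phosphorylation; IC50 obtained by logistic fitting.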

Test [2] concerns phosphorylated AKT Ser473 (pAKT S473), mTORC2 activity, PC3 cells. The test can be described thus: mTOR target engagement assay, immunofluorescent cell-based, pAKT S473 readout (mTORC2 activity). In outline:
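After blocking, cells were stained overnight at 4 °C with anti-pAKT S473 antibody, then a fluorescent secondary; inhibition was read as reduced fluorescence intensity.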

The mark [3] stands for this setting: Homo sapiens, PC-3, Table 3-1, PC3 cells.
The mark [4] stands for this setting: Homo sapiens, PC-3, PC3 cells, compound treatment ninety minutes at 37° C.

Where two headings read alike, the source gives them in different places.

As to `COc1ccc(-c2ccc(-c3cnn4c(N)c(S(C)(=O)=O)c([C@@H]5C[C@H]6CC[C@@H](C5)N6C(=O)c5nnc[nH]5)nc34)cn2)cc1C#N` [Compound 3.92, 5-(5-(5-((1R,3s,5S)-8-(4H-1,2,4-triazole-3-carbonyl)-8-azabicyclo[3.2.1]octan-3-yl)-7-amino-6-(methylsulfonyl)pyrazolo[1,5-a]pyrimidin-3-yl)pyridin-2-yl)-2-methoxybenzonitrile], the IC50 in test [1] (setting [3]) and in test [2] (setting [3]) was 100 to 1000 nM each time.
As for “1-((1R,3s,5S)-3-(6-acetyl-7-amino-3-(6-(cyclopropylamino)pyridin-3-yl)pyrazolo[1,5-a]pyrimidin-5-yl)-8-azabicyclo[3.2.1]octan-8-yl)-2-hydroxyethanone [Compound 8.50]”, the IC50 in test [1] (PC3 cells) and in test [2] (PC3 cells) was 100 to 1000 nM throughout.
On to `CS(=O)(=O)c1c([C@@H]2C[C@H]3CC[C@@H](C2)N3)nc2c(-c3ccc(-c4ccccc4)nc3)cnn2c1N` [Compound 3.202, 5-((1R,3s,5S)-8-azabicyclo[3.2.1]octan-3-yl)-6-(methylsulfonyl)-3-(6-phenylpyridin-3-yl)pyrazolo[1,5-a]pyrimidin-7-amine], for which the IC50 in test [1] (setting [3]) and in test [2] (setting [3]) was 1000 to 10000 nM in each case.
Regarding `Cc1nnc(C(=O)N2[C@@H]3CC[C@H]2C[C@H](c2nc4c(-c5ccc(-c6ccc(F)cc6F)nc5)cnn4c(N)c2S(C)(=O)=O)C3)[nH]1` [Compound 3.127, ((1R,3s,5S)-3-(7-amino-3-(6-(2,4-difluorophenyl)pyridin-3-yl)-6-(methylsulfonyl)pyrazolo[1,5-a]pyrimidin-5-yl)-8-azabicyclo[3.2.1]octan-8-yl)(5-methyl-4H-1,2,4-triazol-3-yl)methanone], the figures for the IC50 in test [1] (setting [3]) and in test [2] (setting [3]) were 1 to 100 nM and 100 to 1000 nM, respectively.
`CS(=O)(=O)c1c([C@@H]2C[C@H]3CC[C@@H](C2)N3C(=O)c2nnc[nH]2)nc2c(-c3ccc(-c4ccccc4F)nc3)cnn2c1N` [Compound 3.104, ((1R,3s,5S)-3-(7-amino-3-(6-(2-fluorophenyl)pyridin-3-yl)-6-(methylsulfonyl)pyrazolo[1,5-a]pyrimidin-5-yl)-8-azabicyclo[3.2.1]octan-8-yl)(4H-1,2,4-triazol-3-yl)methanone]: the IC50 in test [1] (setting [3]) and in test [2] (setting [3]) was 1 to 100 nM each time.
In the case of `CS(=O)(=O)c1c([C@@H]2C[C@H]3CC[C@@H](C2)N3C(=O)c2nnc[nH]2)nc2c(-c3ccc(OC4CCC4)nc3)cnn2c1N` [Compound 8.53, ((1R,3s,5S)-3-(7-amino-3-(6-cyclobutoxypyridin-3-yl)-6-(methylsulfonyl)pyrazolo[1,5-a]pyrimidin-5-yl)-8-azabicyclo[3.2.1]octan-8-yl)(4H-1,2,4-triazol-3-yl)methanone], the IC50 is 1000 to 10000 nM in test [1] (Homo sapiens, PC-3, PC3 cells) and 1000 to 10000 nM in test [2] (Homo sapiens, PC-3, PC3 cells).
Take `CS(=O)(=O)c1c([C@@H]2C[C@H]3CC[C@@H](C2)N3C(=O)c2cnn[nH]2)nc2c(-c3ccc(C4(O)CCC4)nc3)cnn2c1N` [Compound 7.30, ((1R,3s,5S)-3-(7-amino-3-(6-(1-hydroxycyclobutyl)pyridin-3-yl)-6-(methylsulfonyl)pyrazolo[1,5-a]pyrimidin-5-yl)-8-azabicyclo[3.2.1]octan-8-yl)(1H-1,2,3-triazol-5-yl)methanone]: the IC50 was in the range of 100 to 1000 nM in test [1] (Table 7-2, PC3 cells) and 100 to 1000 nM in test [2] (Table 7-2, PC3 cells).
In the case of `CC(=O)c1c([C@@H]2C[C@H]3CC[C@@H](C2)N3C(=O)c2cnccc2O)nc2c(-c3ccc(-c4ccccc4)nc3)cnn2c1N` [Compound 1.1.51, 1-(7-amino-5-((1R,3s,5S)-8-(4-hydroxynicotinoyl)-8-azabicyclo[3.2.1]octan-3-yl)-3-(6-phenylpyridin-3-yl)pyrazolo[1,5-a]pyrimidin-6-yl)ethanone], the IC50 in test [1] (setting [4]) and in test [2] (setting [4]) was 100 to 1000 nM throughout.
With `CS(=O)(=O)c1c([C@@H]2C[C@H]3CC[C@@H](C2)N3C(=O)c2nnc[nH]2)nc2c(-c3ccc(CO)c(F)c3)cnn2c1N` [Compound 8.42, ((1R,3s,5S)-3-(7-amino-3-(3-fluoro-4-(hydroxymethyl)phenyl)-6-(methylsulfonyl)pyrazolo[1,5-a]pyrimidin-5-yl)-8-azabicyclo[3.2.1]octan-8-yl)(4H-1,2,4-triazol-3-yl)methanone], the IC50 in test [1] (Homo sapiens, PC-3, PC3 cells) lay in the range of 1 to 100 nM; in test [2] (Homo sapiens, PC-3, PC3 cells), 1 to 100 nM.
For `CC(=O)c1c([C@@H]2C[C@H]3CC[C@@H](C2)N3C(=O)c2nnc[nH]2)nc2c(-c3ccc(-c4ccn(CF)n4)nc3)cnn2c1N` [Compound 1.1.86, 1-(5-((1R,3s,5S)-8-(4H-1,2,4-triazole-3-carbonyl)-8-azabicyclo[3.2.1]octan-3-yl)-7-amino-3-(6-(1-(fluoromethyl)-1H-pyrazol-3-yl)pyridin-3-yl)pyrazolo[1,5-a]pyrimidin-6-yl)ethanone], the IC50 in test [1] (setting [4]) and in test [2] (setting [4]) was 1 to 100 nM throughout.
With `CC(=O)c1c([C@@H]2C[C@H]3CC[C@@H](C2)N3C(=O)CO)nc2c(-c3ccc(-c4n[nH]c(C)c4F)nc3)cnn2c1N` [Compound 1.11..107, 1-((1R,3s,5S)-3-(6-acetyl-7-amino-3-(6-(4-fluoro-5-methyl-1H-pyrazol-3-yl)pyridin-3-yl)pyrazolo[1,5-a]pyrimidin-5-yl)-8-azabicyclo[3.2.1]octan-8-yl)-2-hydroxyethanone], the IC50 in test [1] (setting [4]) and in test [2] (setting [4]) was 100 to 1000 nM in each case.
On to `CCOC(=O)Nc1ccc(-c2cnn3c(N)c(C(C)=O)c([C@@H]4C[C@H]5CC[C@@H](C4)N5C(=O)c4ncn[nH]4)nc23)cn1` [Compound 8.78, ethyl 5-(5-((1R,3s,5S)-8-(1H-1,2,4-triazole-5-carbonyl)-8-azabicyclo[3.2.1]octan-3-yl)-6-acetyl-7-aminopyrazolo[1,5-a]pyrimidin-3-yl)pyridin-2-ylcarbamate], for which the IC50 in test [1] (Homo sapiens, PC-3, PC3 cells) lay in the range of 1 to 100 nM; in test [2] (Homo sapiens, PC-3, PC3 cells), 1 to 100 nM.
Consider `CC(=O)c1c(N2C3CCC2CN(C(=O)c2nnc[nH]2)C3)nc2c(-c3ccc(-c4ccccc4)nc3)cnn2c1N` [Compound 8.5, 1-(5-(3-(4H-1,2,4-triazole-3-carbonyl)-3,8-diazabicyclo[3.2.1]octan-8-yl)-7-amino-3-(6-phenylpyridin-3-yl)pyrazolo[1,5-a]pyrimidin-6-yl)ethanone], for which the IC50 fell in the range of 1000 to 10000 nM in test [1] (Homo sapiens, PC-3, PC3 cells) and 100 to 1000 nM in test [2] (Homo sapiens, PC-3, PC3 cells).
The corresponding values for `CNc1c(S(C)(=O)=O)c([C@@H]2C[C@H]3CC[C@@H](C2)N3C(=O)c2nnc[nH]2)nc2c(-c3ccc(-c4ccccc4)nc3)cnn12` [Compound 8.41, ((1R,3s,5S)-3-(7-(methylamino)-6-(methylsulfonyl)-3-(6-phenylpyridin-3-yl)pyrazolo[1,5-a]pyrimidin-5-yl)-8-azabicyclo[3.2.1]octan-8-yl)(4H-1,2,4-triazol-3-yl)methanone] are 100 to 1000 nM and 1 to 100 nM.
Consider `CS(=O)(=O)c1c([C@@H]2C[C@H]3CC[C@@H](C2)N3C(=O)c2coc(=O)[nH]2)nc2c(-c3ccc(-c4ccccc4)nc3)cnn2c1N` [Compound 3.138, 4-((1R,3s,5S)-3-(7-amino-6-(methylsulfonyl)-3-(6-phenylpyridin-3-yl)pyrazolo[1,5-a]pyrimidin-5-yl)-8-azabicyclo[3.2.1]octane-8-carbonyl)oxazol-2(3H)-one], for which the IC50 in test [1] (setting [3]) and in test [2] (setting [3]) was 100 to 1000 nM in each case.
In the case of `CS(=O)(=O)c1c([C@@H]2C[C@H]3CC[C@@H](C2)N3C(=O)C(F)(F)F)nc2c(-c3ccc(-c4ccccc4)nc3)cnn2c1N` [Compound 3.91, 1-((1R,3s,5S)-3-(7-amino-6-(methylsulfonyl)-3-(6-phenylpyridin-3-yl)pyrazolo[1,5-a]pyrimidin-5-yl)-8-azabicyclo[3.2.1]octan-8-yl)-2,2,2-trifluoroethanone], the IC50 in test [1] (setting [3]) and in test [2] (setting [3]) was 1000 to 10000 nM in each case.
With `CS(=O)(=O)c1c([C@H]2CC3CC[C@H](C2)N3C(=O)c2nnc[nH]2)nc2c(-c3ccc(C4CCCCC4)nc3)cnn2c1N` [Compound 3.165, ((1R,3s,5S)-3-(7-amino-3-(6-cyclohexylpyridin-3-yl)-6-(methylsulfonyl)pyrazolo[1,5-a]pyrimidin-5-yl)-8-azabicyclo[3.2.1]octan-8-yl)(4H-1,2,4-triazol-3-yl)methanone], the IC50 in test [1] (setting [3]) and in test [2] (setting [3]) was 100 to 1000 nM each time.
With `CS(=O)(=O)c1c([C@@H]2C[C@H]3CC[C@@H](C2)N3C(N)=O)nc2c(-c3ccc(-c4ccc(F)cc4F)nc3)cnn2c1N` [Compound 3.125, (1R,3s,5S)-3-(7-amino-3-(6-(2,4-difluorophenyl)pyridin-3-yl)-6-(methylsulfonyl)pyrazolo[1,5-a]pyrimidin-5-yl)-8-azabicyclo[3.2.1]octane-8-carboxamide], the IC50 fell in the range of 100 to 1000 nM in test [1] (setting [3]) and 1 to 100 nM in test [2] (setting [3]).
For `CS(=O)(=O)c1c([C@@H]2C[C@H]3CC[C@@H](C2)N3C(=O)c2nnc[nH]2)nc2c(-c3cnc4ccc(F)cc4c3)cnn2c1N` [Compound 3.25], the IC50 in test [1] (setting [3]) and in test [2] (setting [3]) was 1 to 100 nM in each case.
As for `CC(=O)c1c(C2CC3CCCC(C2)N3C(=O)c2nc[nH]n2)nc2c(-c3ccc(-c4ccccc4)nc3)cnn2c1N` (stereo not shown) [Compound 8.33, 1-(5-(9-(1H-1,2,4-triazole-3-carbonyl)-9-azabicyclo[3.3.1]nonan-3-yl)-7-amino-3-(6-phenylpyridin-3-yl)pyrazolo[1,5-a]pyrimidin-6-yl)ethanone], the IC50 in test [1] (Homo sapiens, PC-3, PC3 cells) lay within 100 to 1000 nM; in test [2] (Homo sapiens, PC-3, PC3 cells), 100 to 1000 nM.

These data come from US9227971B2, “Pyrazolo[1,5-a]pyrimidine compounds as mTOR inhibitors” (Merck Sharp & Dohme Corp., priority 2010, dated 2016).
